Values of other authors as cited in patent publication US20240423900A1, “ANHYDROUS BARRIER AND ANTIOXIDANT COMPOSITIONS” (Baek Clinical Inc., priority 2023, published 2024).

Tests used:
human skin = settings: general statement, no test described
[1] = general statement, no test described

Compound: CC(C)CCCC(C)CCCC(C)CCCCC(C)CCCC(C)CCCC(C)C (centres unmarked) [Squalane, squalane]
- human skin irritant or sensitizer (human skin): not a significant human skin irritant or sensitizer
- acute toxicity [1]: low acute toxicity
